Publication PMC10178204, “Peptaibol Analogs Show Potent Antibacterial Activity against Multidrug Resistant Opportunistic Pathogens” (International Journal of Molecular Sciences, 2023)
Converted amounts (≈) assume the structure as drawn. Where two headings read alike, the source gives them in different places. Non-standard residues stand in square brackets, D forms with d. Residues, ends and D or L forms follow the SMILES beside them. *: point of attachment. Leu(ol) = CC(C)C[C@H](N)CO; Octanoyl = CCCCCCCC(=O)*; Api = NC1(C(=O)O)CCNCC1; Aib = CC(C)(N)C(=O)O

Experiments:
[1] = test system: Acinetobacter baumannii ATCC 17978; details: for MIC Aba: MHB, 5 × 10^5 CFU/mL, 18 h, 35 °C, triplicate
From the text: (§1) The antibacterial activity of the peptides was initially assessed on a panel of representative Gram-positive and Gram-negative organisms of high clinical relevance and commonly responsible for bacterial infections in both animals and humans. Bacillus subtilis ATCC 6633 (Bsu) was also included as a rod-shaped model Gram-positive organism. This first panel comprised: Enterococcus faecalis ATCC 29212 (Efa); Streptococcus pyogenes ATCC 12344 (Spy); and Staphylococcus aureus ATCC 25923 (Sau); Gram-negative: Escherichia coli CCUGT (Eco), Klebsiella pneumoniae ATCC 13833 (Kpn), Acinetobacter baumannii ATCC 17978 (Aba), and Pseudomonas aeruginosa ATCC 27853 (Pae) (Table 2). Both the minimum inhibitory concentration (MIC, Table 2) and the minimum bactericidal concentration (MBC, Table S1, Supporting Material) were determined.
(§2) The minimum inhibitory concentration (MIC) and the minimum bactericidal concentration (MBC) of the compounds were determined in triplicate using Mueller–Hinton broth (MHB). […] Therefore, we decided to dissolve all peptides in DMSO to a final concentration of 25 mg/mL, for consistency. The bacteria inoculum was 5 × 10^5 CFU/mL, as recommended by CLSI (Document M07-A10, 2015). […] Reference-type strains, including representatives of both Gram-positive bacteria (Bacillus subtilis ATCC 6633, Enterococcus faecalis ATCC 29212, Staphylococcus aureus ATCC 25923, the methicillin-resistant Staphylococcus aureus ATCC 43300 (MRSA), Streptococcus pyogenes ATCC 12344) and Gram-negative bacteria (Escherichia coli CCUGT, Klebsiella pneumoniae ATCC 13833, Pseudomonas aeruginosa ATCC 27853, and Acinetobacter baumannii ATCC 17978), were acquired from ATCC or CCUG culture collections. Other antibiotic-resistant clinical isolates were present in our collection at the University Teaching Hospital (Azienda Ospedaliero-Universitaria Senese ‘Santa Maria alle Scotte’) in Siena, Tuscany, Italy. Specifically, MDR carbapenem-hydrolyzing class D β-lactamase-producing Acinetobacter baumannii and metallo-β-lactamase-producing Pseudomonas aeruginosa were used in this study (Table 4).

[2] = test system: Bacillus subtilis ATCC 6633
From the text: as §1, §2

[3] = test system: Klebsiella pneumoniae ATCC 13833; details: for MIC Kpn: MHB, 5 × 10^5 CFU/mL, 18 h, 35 °C, triplicate
From the text: as §1, §2

Escherichia coli CCUGT = details: 18 h; for MIC Eco: MHB, 5 × 10^5 CFU/mL, 35 °C, triplicate
From the text: as §1, §2

[4] = test system: Streptococcus pyogenes ATCC 12344
From the text: as §1, §2

[5] = test system: Staphylococcus aureus ATCC 25923
From the text: as §1, §2

[6] = test system: Pseudomonas aeruginosa ATCC 27853; details: for MIC Pae: MHB, 5 × 10^5 CFU/mL, 18 h, 35 °C, triplicate
From the text: as §1, §2

[7] = test system: Enterococcus faecalis ATCC 29212
From the text: as §1, §2

[8] = test system: blood agar plate (Columbia CNA Agar); assay: Hemolysis on blood agar plate; details: 35 ± 2 °C, 24 h; for Hemolysis (class): 50 μg peptide (2 μL of 25 mg/mL in DMSO) spotted on blood agar, visual, triplicate; for Hemolytic activity (in words) / Hemolysis (d, diameter of hemolysis zone): 50 μg spotted on blood agar; for Hemolysis (d, diameter of hemolysis zone): average of triplicate
Description: Hemolysis zones were visually determined and measured. […] For two additional peptides (6 and 15), only a small hemolysis zone (diameter 4–5 mm) was visible, as compared to that of the positive control (Triton X-100, 13 mm).
Briefly, 2 μL of each peptide solution in DMSO (25 mg/mL), corresponding to 50 μg, was spotted on the surface of a blood agar plate (Columbia CNA Agar, Becton Dickinson Italia S.p.A., Florence, Italy). The plate was then incubated at 35 ± 2 °C for 24 h and visually inspected for the presence of hemolysis zones (see Figure S13, Supplementary Material). The experiment was performed in triplicate. Table 2 reports the average value of the diameter of hemolysis zones measured in each individual experiment. Triton X-100 was used as a positive control (diameter of the hemolysis zone: 13 mm), while DMSO was used as a negative control.
Figure S13. Implementation of the hemolysis test as described in Bechlars et al.. After spotting
2 µL (50 µg) of each compound at a random location on the blood agar plate and incubation at 35 ±
2 °C for 24 h, the plates were manually inspected for the presence of hemolysis zones. Triton X-100
and DMSO were used as the positive and negative controls, respectively. Results were interpreted
(1 picture or pasted object on this page, not shown here)

[9] = MHB, 5 × 10^5 CFU/mL, 18 h, 35 °C, triplicate

Row | Compound | MIC Aba [1] | MIC Bsu [2, 9] | MIC Kpn [3] | MIC Eco (Escherichia coli CCUGT) | MIC Spy [4, 9] | MIC Sau [5, 9] | MIC Pae [6] | MIC Efa [7, 9] | Hemolysis (class) [8] | further results
1 | CCCCCCCC(=O)NC(C)(C)C(=O)NCC(=O)N[C@@H](CC(C)C)C(=O)NC(C)(C)C(=O)NCC(=O)NCC(=O)N[C@@H](CC(C)C)C(=O)NC(C)(C)C(=O)NCC(=O)N[C@H](C(=O)N[C@H](CO)CC(C)C)[C@@H](C)CC [Peptide 0, Trichogin GA IV, reference compound] (Octanoyl-[Aib]GL[Aib]GGL[Aib]GI[Leu(ol)]) | > 128 µg/mL | 16 µg/mL (≈ 15 µM) | > 128 µg/mL | > 128 µg/mL | 16 µg/mL (≈ 15 µM) | > 128 µg/mL | > 128 µg/mL | 16 µg/mL (≈ 15 µM) | - | MBC Bsu [2, 9]: 32 µg/mL (≈ 30 µM); MBC Spy [4, 9]: 16 µg/mL (≈ 15 µM); MBC Efa [7, 9]: 32 µg/mL (≈ 30 µM)
2 | CCCCCCCC(=O)NC(C)(C)C(=O)NCC(=O)N[C@@H](CC(C)C)C(=O)N[C@@H](CC(C)C)C(=O)NCC(=O)NCC(=O)N[C@@H](CC(C)C)C(=O)NC(C)(C)C(=O)NCC(=O)N[C@H](C(=O)N[C@@H](CC(C)C)C(N)=O)[C@@H](C)CC [Peptide 3, 1-Oct-Aib-Gly-Leu-Leu-Gly-Gly-Leu-Aib-Gly-Ile-Leu-NH2] (Octanoyl-[Aib]GLLGGL[Aib]GIL-NH2) | > 128 µg/mL | > 128 µg/mL | > 128 µg/mL | > 128 µg/mL | > 128 µg/mL | > 128 µg/mL | > 128 µg/mL | > 128 µg/mL | - | Hemolytic activity (in words) [8]: no hemolysis detected
3 | CCCCCCCC(=O)NC(C)(C)C(=O)NCC(=O)N[C@@H](CC(C)C)C(=O)NC(C)(C)C(=O)N[C@@H](CCCCN)C(=O)NC(C)(C)C(=O)N[C@@H](CC(C)C)C(=O)NC(C)(C)C(=O)NCC(=O)N[C@H](C(=O)N[C@@H](CC(C)C)C(N)=O)[C@@H](C)CC [Peptide 6b, 1-Oct-Aib-Gly-Leu-Aib-Lys-Aib-Leu-Aib-Gly-Ile-Leu-NH2] (Octanoyl-[Aib]GL[Aib]K[Aib]L[Aib]GIL-NH2) | > 128 µg/mL | 128 µg/mL (≈ 109 µM) | > 128 µg/mL | > 128 µg/mL | 8 µg/mL (≈ 6.79 µM) | 128 µg/mL (≈ 109 µM) | > 128 µg/mL | 128 µg/mL (≈ 109 µM) | - | MBC Bsu [2, 9]: 128 µg/mL (≈ 109 µM); MBC Spy [4, 9]: 32 µg/mL (≈ 27.2 µM); MBC Sau [5, 9]: 128 µg/mL (≈ 109 µM); MBC Efa [7, 9]: 128 µg/mL (≈ 109 µM)
4 | CCCCCCCC(=O)NC(C)(C)C(=O)NCC(=O)N[C@@H](CC(C)C)C(=O)NC(C)(C)C(=O)NCC(=O)NCC(=O)N[C@@H](CC(C)C)C(=O)NC1(C(=O)NCC(=O)N[C@H](C(=O)N[C@@H](CC(C)C)C(N)=O)[C@@H](C)CC)CCNCC1 [Peptide 8, 1-Oct-Aib-Gly-Leu-Aib-Gly-Gly-Leu-Api-Gly-Ile-Leu-NH2] (Octanoyl-[Aib]GL[Aib]GGL[Api]GIL-NH2) | > 128 µg/mL | 32 µg/mL (≈ 28.6 µM) | > 128 µg/mL | > 128 µg/mL | 16 µg/mL (≈ 14.3 µM) | > 128 µg/mL | > 128 µg/mL | 16 µg/mL (≈ 14.3 µM) | + | Hemolytic activity (in words) [8]: hemolytic activity; Hemolysis (d, diameter of hemolysis zone) [8]: 7 mm
5 | CCCCCCCC(=O)NC(C)(C)C(=O)N[C@@H](CCCCN)C(=O)N[C@@H](CCCCN)C(=O)N[C@@H](CC(C)C)C(=O)NC(C)(C)C(=O)NCC(=O)N[C@H](C(=O)N[C@@H](CC(C)C)C(N)=O)[C@@H](C)CC [Peptide 12, 1-Oct-Aib-Lys-Lys-Leu-Aib-Gly-Ile-Leu-NH2] (Octanoyl-[Aib]KKL[Aib]GIL-NH2) | 32 µg/mL (≈ 33.1 µM) | 4 µg/mL (≈ 4.14 µM) | 64 µg/mL (≈ 66.2 µM) | 16 µg/mL (≈ 16.6 µM) | 16 µg/mL (≈ 16.6 µM) | 16 µg/mL (≈ 16.6 µM) | 64 µg/mL (≈ 66.2 µM) | 32 µg/mL (≈ 33.1 µM) |  | MBC Aba ([1]; ATCC 17978, 18 h): 32 µg/mL (≈ 33.1 µM); MBC Bsu ([2]; ATCC 6633, 18 h): 16 µg/mL (≈ 16.6 µM); MBC Kpn ([3]; ATCC 13833, 18 h): > 128 µg/mL; MBC Eco (Escherichia coli CCUGT; CCUGT): 64 µg/mL (≈ 66.2 µM); MBC Spy ([4]; ATCC 12344, 18 h): 16 µg/mL (≈ 16.6 µM); MBC Sau ([5]; ATCC 25923, 18 h): 16 µg/mL (≈ 16.6 µM); MBC Pae ([6]; ATCC 27853, 18 h): > 128 µg/mL; MBC Efa ([7]; ATCC 29212, 18 h): 32 µg/mL (≈ 33.1 µM)
6 | CCCCCCCC(=O)NC(C)(C)C(=O)N[C@@H](CCCCN)C(=O)N[C@@H](CCCCN)C(=O)N[C@@H](CC(C)C)C(=O)N[C@@H](CC(C)C)C(N)=O [Peptide 13, 1-Oct-Aib-Lys-Lys-Leu-Leu-NH2] (Octanoyl-[Aib]KKLL-NH2) | > 128 µg/mL | 32 µg/mL (≈ 45 µM) | > 128 µg/mL | > 128 µg/mL | > 128 µg/mL | > 128 µg/mL | > 128 µg/mL | > 128 µg/mL |  | MBC Bsu ([2]; ATCC 6633, 18 h): 64 µg/mL (≈ 90 µM)
7 | CCCCCCCC(=O)N[C@@H](CC(C)C)C(=O)NC(C)(C)C(=O)N[C@@H](CCCCN)C(=O)N[C@H](C(N)=O)[C@@H](C)CC [Peptide 14, 1-Oct-Leu-Aib-Lys-Ile-NH2] (Octanoyl-L[Aib]KI-NH2) | > 128 µg/mL | > 128 µg/mL | > 128 µg/mL | > 128 µg/mL | > 128 µg/mL | > 128 µg/mL | > 128 µg/mL | > 128 µg/mL |  | 
8 | CCCCCCCC(=O)N[C@@H](CC(C)C)C(=O)NC(C)(C)C(=O)N[C@@H](CCCCN)C(=O)N[C@@H](CC(C)C)C(N)=O [Peptide 16, 1-Oct-Leu-Aib-Lys-Leu-NH2] (Octanoyl-L[Aib]KL-NH2) | > 128 µg/mL | > 128 µg/mL | > 128 µg/mL | > 128 µg/mL | > 128 µg/mL | > 128 µg/mL | > 128 µg/mL | > 128 µg/mL |  | 
9 | CCCCCCCC(=O)N[C@@H](CCCCN)C(=O)N[C@@H](CC(C)C)C(=O)NC(C)(C)C(=O)N[C@@H](CC(C)C)C(N)=O [Peptide 17, 1-Oct-Lys-Leu-Aib-Leu-NH2] (Octanoyl-KL[Aib]L-NH2) | > 128 µg/mL | > 128 µg/mL | > 128 µg/mL | > 128 µg/mL | > 128 µg/mL | > 128 µg/mL | > 128 µg/mL | > 128 µg/mL |  | 
10 | CCCCCCCC(=O)N[C@@H](CC(C)C)C(=O)N[C@@H](CCCCN)C(=O)NC(C)(C)C(=O)N[C@@H](CC(C)C)C(N)=O [Peptide 18, 1-Oct-Leu-Lys-Aib-Leu-NH2] (Octanoyl-LK[Aib]L-NH2) | > 128 µg/mL | 128 µg/mL (≈ 220 µM) | > 128 µg/mL | > 128 µg/mL | 128 µg/mL (≈ 220 µM) | > 128 µg/mL | > 128 µg/mL | > 128 µg/mL |  | MBC Bsu ([2]; ATCC 6633, 18 h): > 128 µg/mL
11 | Triton X-100 [reference compound] |  |  |  |  |  |  |  |  |  | Hemolysis (d, diameter of hemolysis zone) [8]: 13 mm
